Data from PubChem BioAssay (NCI).
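Results reflect a 48-hour exposure of cells in 96-well plates to compound at five concentrations. At the GI50, growth is halved. TGI is the concentration that stops growth completely.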

What was measured:
Assay in all cases: DTP human tumour cell line panel, 48 h
HCC-2998 colon = test system: HCC-2998 colon
M14 melanoma = test system: M14 melanoma
A498 renal = test system: A498 renal
EKVX NSCLC = test system: EKVX NSCLC
CCRF-CEM leukemia = test system: CCRF-CEM leukemia
MDA-MB-435 = test system: MDA-MB-435
UACC-257 melanoma = test system: UACC-257 melanoma
SK-MEL-5 melanoma = test system: SK-MEL-5 melanoma
HOP-92 NSCLC = test system: HOP-92 NSCLC
UACC-62 melanoma = test system: UACC-62 melanoma

With `COc1ccc2cc(CNCCCCCCNC(=O)Nc3cccc4ccccc34)ccc2c1` the TGI (HCC-2998 colon) was > 100 µM, the TGI (M14 melanoma) was > 100 µM and the TGI (A498 renal) was > 100 µM. For the same compound, the TGI (EKVX NSCLC) was > 100 µM, the TGI (CCRF-CEM leukemia) was > 100 µM and the TGI (MDA-MB-435) was > 100 µM. The TGI (UACC-257 melanoma) was > 100 µM, the TGI (SK-MEL-5 melanoma) was > 100 µM and the TGI (HOP-92 NSCLC) was > 100 µM. For the same compound, the TGI (UACC-62 melanoma) was > 100 µM.
With `CC(=O)CC(O)(C(F)(F)Cl)C(F)(Cl)Cl` (stereo unspecified) the TGI (HCC-2998 colon) was > 10 µM, the TGI (M14 melanoma) was > 10 µM and the TGI (A498 renal) was > 10 µM. The TGI (EKVX NSCLC) was > 10 µM, the TGI (CCRF-CEM leukemia) was > 10 µM and the TGI (MDA-MB-435) was > 10 µM. For the same compound, the TGI (UACC-257 melanoma) was > 10 µM, the TGI (SK-MEL-5 melanoma) was > 10 µM and the TGI (HOP-92 NSCLC) was > 10 µM. The TGI (UACC-62 melanoma) was > 10 µM.
For `NC1CC(=O)c2c(I)sc(I)c21` (stereo unspecified), the TGI (HCC-2998 colon) was 44.2 µM, the TGI (M14 melanoma) was > 77.1 µM and the TGI (A498 renal) was 37.1 µM. For the same compound, the TGI (EKVX NSCLC) was 39.3 µM, the TGI (CCRF-CEM leukemia) was > 34.3 µM and the TGI (MDA-MB-435) was 38.7 µM. For the same compound, the TGI (UACC-257 melanoma) was 39.9 µM, the TGI (SK-MEL-5 melanoma) was > 71.1 µM and the TGI (HOP-92 NSCLC) was 43.5 µM. For the same compound, the TGI (UACC-62 melanoma) was 32.6 µM.
With `C#C[C@]1(O)CC[C@H]2[C@@H]3CCC4=C/C(=N/OC(=O)c5cccc6cc7ccccc7nc56)CC[C@@H]4[C@H]3CC[C@@]21CC` the TGI (HCC-2998 colon) was > 100 µM, the TGI (M14 melanoma) was > 100 µM and the TGI (A498 renal) was > 100 µM. For the same compound, the TGI (CCRF-CEM leukemia) was > 100 µM, the TGI (MDA-MB-435) was > 100 µM and the TGI (UACC-257 melanoma) was > 100 µM. For the same compound, the TGI (SK-MEL-5 melanoma) was > 100 µM, the TGI (HOP-92 NSCLC) was > 100 µM and the TGI (UACC-62 melanoma) was > 100 µM.
In the case of `COc1ccc(/C=N/n2c(-c3ccccc3)n[nH]c2=O)c(OC)c1`, the TGI (HCC-2998 colon) is reported as > 100 µM, the TGI (M14 melanoma) is reported as > 100 µM and the TGI (A498 renal) is reported as > 73.4 µM. For the same compound, the TGI (EKVX NSCLC) was > 100 µM, the TGI (CCRF-CEM leukemia) was > 100 µM and the TGI (MDA-MB-435) was > 100 µM. The TGI (UACC-257 melanoma) was > 100 µM, the TGI (SK-MEL-5 melanoma) was > 100 µM and the TGI (HOP-92 NSCLC) was > 100 µM. The TGI (UACC-62 melanoma) was > 100 µM.
`Cc1[nH]c2c(C)c3c([nH]c4ccc(Cl)cc43)c(C)c2c(=O)c1C` was tested, and the TGI (HCC-2998 colon) was 16.5 µM, the TGI (M14 melanoma) was > 100 µM and the TGI (A498 renal) was 51.9 µM. The TGI (EKVX NSCLC) was > 100 µM, the TGI (CCRF-CEM leukemia) was 18.1 µM and the TGI (MDA-MB-435) was > 53.5 µM. The TGI (UACC-257 melanoma) was > 100 µM, the TGI (SK-MEL-5 melanoma) was 42.2 µM and the TGI (HOP-92 NSCLC) was > 100 µM. The TGI (UACC-62 melanoma) was > 88.3 µM.
`CCc1nnc2sc(-c3ccc(-c4ccccc4[N+](=O)[O-])o3)nn12` was tested, and the TGI (HCC-2998 colon) was > 100 µM, the TGI (M14 melanoma) was > 100 µM and the TGI (A498 renal) was > 100 µM. The TGI (EKVX NSCLC) was > 100 µM, the TGI (CCRF-CEM leukemia) was > 100 µM and the TGI (MDA-MB-435) was 49.8 µM. The TGI (UACC-257 melanoma) was > 100 µM, the TGI (SK-MEL-5 melanoma) was 65.9 µM and the TGI (HOP-92 NSCLC) was > 100 µM. For the same compound, the TGI (UACC-62 melanoma) was > 100 µM.
`COc1cccc(C2c3cc4c(cc3OC(NNS(=O)(=O)c3ccc(C)cc3)C2C)OCO4)c1O` (stereo unspecified) was tested, and the TGI (HCC-2998 colon) was > 100 µM, the TGI (M14 melanoma) was > 100 µM and the TGI (A498 renal) was 70.4 µM. The TGI (EKVX NSCLC) was > 100 µM, the TGI (CCRF-CEM leukemia) was 43.6 µM and the TGI (MDA-MB-435) was 92.4 µM. The TGI (UACC-257 melanoma) was > 100 µM, the TGI (SK-MEL-5 melanoma) was 42 µM and the TGI (HOP-92 NSCLC) was 76.3 µM. For the same compound, the TGI (UACC-62 melanoma) was 79.7 µM.
For `O=C(c1ccccc1)c1nn(-c2cccc(Cl)c2)c2nc3nc(-c4ccccc4)cc(=O)n3nc12`, the GI50 (HCC-2998 colon) was 22.6 µM, the TGI (HCC-2998 colon) was > 25 µM and the GI50 (M14 melanoma) was > 25 µM. The TGI (M14 melanoma) was > 25 µM, the GI50 (A498 renal) was > 25 µM and the TGI (A498 renal) was > 25 µM. The GI50 (EKVX NSCLC) was > 25 µM, the TGI (EKVX NSCLC) was > 25 µM and the GI50 (CCRF-CEM leukemia) was > 25 µM. The TGI (CCRF-CEM leukemia) was > 25 µM, the GI50 (MDA-MB-435) was > 25 µM and the TGI (MDA-MB-435) was > 25 µM. The GI50 (UACC-257 melanoma) was > 25 µM, the TGI (UACC-257 melanoma) was > 25 µM and the GI50 (SK-MEL-5 melanoma) was > 25 µM. The TGI (SK-MEL-5 melanoma) was > 25 µM, the GI50 (HOP-92 NSCLC) was > 25 µM and the TGI (HOP-92 NSCLC) was > 25 µM. For the same compound, the GI50 (UACC-62 melanoma) was > 25 µM and the TGI (UACC-62 melanoma) was > 25 µM.
In the case of `CC(C)=CC(=O)c1[nH]c2ccccc2c1CC(=O)NCCc1cnc[nH]1`, the TGI (HCC-2998 colon) is reported as > 100 µM, the TGI (M14 melanoma) is reported as > 100 µM and the TGI (A498 renal) is reported as > 100 µM. For the same compound, the TGI (EKVX NSCLC) was > 100 µM, the TGI (CCRF-CEM leukemia) was > 100 µM and the TGI (MDA-MB-435) was > 100 µM. For the same compound, the TGI (UACC-257 melanoma) was > 100 µM, the TGI (SK-MEL-5 melanoma) was > 100 µM and the TGI (HOP-92 NSCLC) was > 100 µM. The TGI (UACC-62 melanoma) was > 100 µM.
For `COc1ccc2nc(-c3ccc(N)cc3)sc2c1`, the TGI (HCC-2998 colon) was > 100 µM, the TGI (M14 melanoma) was > 100 µM and the TGI (A498 renal) was > 100 µM. The TGI (EKVX NSCLC) was > 100 µM, the TGI (CCRF-CEM leukemia) was > 100 µM and the TGI (MDA-MB-435) was > 100 µM. For the same compound, the TGI (UACC-257 melanoma) was > 100 µM, the TGI (SK-MEL-5 melanoma) was > 100 µM and the TGI (HOP-92 NSCLC) was > 100 µM. For the same compound, the TGI (UACC-62 melanoma) was > 100 µM.
In the case of `CCC(CCCC[C@H]1CC[C@@H]2CC(=O)C[C@H]12)OC` (stereo partly specified), the TGI (HCC-2998 colon) is reported as > 100 µM, the TGI (M14 melanoma) is reported as > 100 µM and the TGI (A498 renal) is reported as > 100 µM. For the same compound, the TGI (EKVX NSCLC) was > 100 µM, the TGI (CCRF-CEM leukemia) was > 100 µM and the TGI (MDA-MB-435) was > 100 µM. For the same compound, the TGI (UACC-257 melanoma) was > 100 µM, the TGI (SK-MEL-5 melanoma) was > 100 µM and the TGI (HOP-92 NSCLC) was > 100 µM. For the same compound, the TGI (UACC-62 melanoma) was > 100 µM.
`Clc1ccc(Cc2nc3cc4ccccc4cc3[nH]2)cc1Cl` was tested, and the TGI (HCC-2998 colon) was 40.4 µM, the TGI (M14 melanoma) was 75.3 µM and the TGI (A498 renal) was 27.7 µM. For the same compound, the TGI (EKVX NSCLC) was 78.2 µM, the TGI (CCRF-CEM leukemia) was > 100 µM and the TGI (MDA-MB-435) was 49.3 µM. The TGI (UACC-257 melanoma) was 37.7 µM, the TGI (SK-MEL-5 melanoma) was 20.4 µM and the TGI (HOP-92 NSCLC) was 30.6 µM. It also gave a TGI (UACC-62 melanoma) of 34.2 µM.
`CC(C)C1OC(=O)C(Cc2ccccc2)N(C)C(=O)C(C(C)C)OC(=O)C(Cc2ccccc2)N(C)C(=O)C(C(C)C)OC(=O)C(Cc2ccccc2)N(C)C1=O` (stereo unspecified) was tested, and the TGI (HCC-2998 colon) was 1.99 µM, the TGI (M14 melanoma) was 2.03 µM and the TGI (A498 renal) was 6.53 µM. For the same compound, the TGI (EKVX NSCLC) was 2.41 µM, the TGI (CCRF-CEM leukemia) was 1.59 µM and the TGI (MDA-MB-435) was 1.41 µM. It also gave a TGI (UACC-257 melanoma) of 2 µM, a TGI (SK-MEL-5 melanoma) of 1.08 µM and a TGI (HOP-92 NSCLC) of 1.3 µM. It also gave a TGI (UACC-62 melanoma) of 1.98 µM.
With `Cc1nc2nnc(CCCCCCCCc3nnc4nc(C)[nH]n34)n2[nH]1` the TGI (HCC-2998 colon) was > 100 µM, the TGI (M14 melanoma) was > 100 µM and the TGI (A498 renal) was > 100 µM. For the same compound, the TGI (EKVX NSCLC) was > 100 µM, the TGI (CCRF-CEM leukemia) was > 100 µM and the TGI (MDA-MB-435) was > 100 µM. For the same compound, the TGI (UACC-257 melanoma) was > 100 µM, the TGI (SK-MEL-5 melanoma) was > 100 µM and the TGI (HOP-92 NSCLC) was > 100 µM.
With `Cc1cccc(NC(=S)NNC(=O)c2cc(-c3ccccc3)nc3ccccc23)c1` the TGI (HCC-2998 colon) was 57.3 µM, the TGI (M14 melanoma) was > 100 µM and the TGI (A498 renal) was 47.6 µM. The TGI (CCRF-CEM leukemia) was 35.4 µM, the TGI (MDA-MB-435) was 85.7 µM and the TGI (UACC-257 melanoma) was > 100 µM. It also gave a TGI (SK-MEL-5 melanoma) of 39 µM, a TGI (HOP-92 NSCLC) of 68.5 µM and a TGI (UACC-62 melanoma) of 99.7 µM.
In the case of `COc1cc2c(c(O)c1OC)C(O)C1CCC(=O)N1C2c1ccc2c(c1)OCO2` (stereo unspecified), the TGI (HCC-2998 colon) is reported as > 100 µM, the TGI (M14 melanoma) is reported as > 100 µM and the TGI (A498 renal) is reported as > 100 µM. The TGI (EKVX NSCLC) was > 100 µM, the TGI (CCRF-CEM leukemia) was > 100 µM and the TGI (MDA-MB-435) was > 100 µM. For the same compound, the TGI (UACC-257 melanoma) was > 100 µM, the TGI (HOP-92 NSCLC) was > 100 µM and the TGI (UACC-62 melanoma) was > 100 µM.
